{"source": "ChEMBL document CHEMBL1201862", "about": "“PubChem BioAssay data set” (2004)", "target": "Envelope glycoprotein gp160 (Human immunodeficiency virus 1, UniProt Q6QLK5)", "sequence (Q6QLK5 whole entry, the tested form may be a part)": "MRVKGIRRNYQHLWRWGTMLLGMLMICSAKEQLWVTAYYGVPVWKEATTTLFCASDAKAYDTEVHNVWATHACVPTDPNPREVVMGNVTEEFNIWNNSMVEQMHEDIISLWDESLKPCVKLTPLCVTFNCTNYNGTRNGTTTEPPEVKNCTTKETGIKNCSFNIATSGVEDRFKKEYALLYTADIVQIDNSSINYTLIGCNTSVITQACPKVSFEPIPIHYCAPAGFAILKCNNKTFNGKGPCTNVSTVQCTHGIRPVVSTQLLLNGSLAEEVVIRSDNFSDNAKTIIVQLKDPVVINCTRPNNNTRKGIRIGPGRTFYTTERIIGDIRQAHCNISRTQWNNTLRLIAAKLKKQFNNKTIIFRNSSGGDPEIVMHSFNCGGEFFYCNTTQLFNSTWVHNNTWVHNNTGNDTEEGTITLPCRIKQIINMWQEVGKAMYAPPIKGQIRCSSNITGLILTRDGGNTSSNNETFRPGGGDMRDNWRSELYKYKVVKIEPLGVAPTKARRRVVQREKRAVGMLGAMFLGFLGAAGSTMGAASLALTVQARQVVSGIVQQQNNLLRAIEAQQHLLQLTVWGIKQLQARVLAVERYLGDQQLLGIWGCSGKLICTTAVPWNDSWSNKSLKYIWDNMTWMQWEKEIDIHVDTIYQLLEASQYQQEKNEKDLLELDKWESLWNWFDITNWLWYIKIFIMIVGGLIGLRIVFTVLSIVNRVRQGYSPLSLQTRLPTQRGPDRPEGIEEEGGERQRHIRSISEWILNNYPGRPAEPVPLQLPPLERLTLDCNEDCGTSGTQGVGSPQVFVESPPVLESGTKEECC", "assay": "inhibitors of HIV fusion peptide binding, primary screen, biochemical, uHTS, fluorescence dequenching (AID 1986)", "note": "Active and inactive are the calls of the source. No stated cut-off is given here; in the data, actives have a measured IC50 and inactives only a lower limit."}
{"compound": "CC(c1ccccc1)N1C(=O)c2ccc(C(=O)Nc3ccc(Br)cc3C(=O)O)cc2C1=O", "note": "(configuration not stated)", "values": [{"measurement": "IC50", "result": "14.1 µM (active)"}]}
{"compound": "CC(C)(C)c1ccc(S(=O)(=O)/N=C2\\C=C(NS(=O)(=O)c3ccccc3)C(=O)c3ccccc32)cc1", "values": [{"measurement": "IC50", "result": "9.23 µM (active)"}]}
